From patent US20110014291A1, “Novel Polymorphs of Bosentan” (ACTAVIS GROUP PTC EHF, priority 2007, published 2011) come the findings set out here.

A short description of the data set: dissolution properties of the solid form. It is filed as physicochemical. The following applies: conditions not given.

On to `COc1ccccc1Oc1c(NS(=O)(=O)c2ccc(C(C)(C)C)cc2)nc(-c2ncccn2)nc1OCCO` [amorphous form, bosentan], for which the dissolution properties result is “advantageous dissolution properties”.
